The target in assay [1] is T1, full-length HAQ STING (Homo sapiens, UniProt Q86WV6, G230A/H232R/R293Q/R71H).
T1 construct: AviTag (after GG linker) (C); HRV3C cleavage site (after GS linker) (C); HIS8 (C); made in house; host or cells: Trichoplusia ni (Hi-Five) insect cells infected with baculovirus (virus generated and amplified in Sf21 cells); used as a washed membrane preparation
Description: 3H-cGAMP filtration binding assay (HAQ STING). As to conditions: competition with tritiated cGAMP, HAQ STING membrane. In short, it runs like this:
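Hi-Five (T. ni) membranes overexpressing the STING variant (2.2 ug/ml working) preincubated with compound 60 min at RT in PBS, then [3H]cGAMP (8 nM working stock) added for 60 min at RT. Bound radioactivity captured on GF/B filters and counted by scintillation; EC50 from 4-parameter fit of control-normalized activity.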

Assay [2] deals with T2, full-length WT STING (Homo sapiens, UniProt Q86WV6, H232R).
T2 construct: AviTag (after gg linker) (C); HRV3C cleavage site (after gs linker) (C); HIS8 (C); made in house; host or cells: Trichoplusia ni (Hi-Five) insect cells infected with baculovirus (virus generated and amplified in Sf21 cells); used as a washed membrane preparation
Description: 3H-cGAMP filtration binding assay (WT STING). As to conditions: competition with tritiated cGAMP, WT STING membrane. Put shortly: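 EC50 values come from 4-parameter fits of remaining filter-bound tritium versus log concentration (10-point, 1:3 dilution). Insect-cell membranes carrying full-length WT STING were incubated 60 min at RT with compound and tritiated cGAMP (16 nM working stock) before filtration.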

The subject of assay [3] is secretion of interferon-beta from THP1 cells. Description: IFN-β secretion in THP1 cell culture (5 h). It counts as cell-based. Particulars: Homo sapiens, THP-1, 5 h, 30 uM cGAMP = 100%; for activation at 30 µM: compound at 30 μM, read-out: % Effect at 30 μM relative to 2′3′-cGAMP. In short, it runs like this: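 IFN-β in supernatant measured by AlphaLISA after a 5 h, 37 °C incubation of THP1 cells with compound (10 concentrations, 30000 down to 1.5 nM, 0.3% DMSO) in low-serum RPMI. Values scaled between DMSO and 30 uM cGAMP controls; 4-parameter curve fit yields EC50.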

Each structure is given as a SMILES string.

T1 sequence (Q86WV6 with tags, fused parts or gaps R71H/G230A/H232R/R293Q): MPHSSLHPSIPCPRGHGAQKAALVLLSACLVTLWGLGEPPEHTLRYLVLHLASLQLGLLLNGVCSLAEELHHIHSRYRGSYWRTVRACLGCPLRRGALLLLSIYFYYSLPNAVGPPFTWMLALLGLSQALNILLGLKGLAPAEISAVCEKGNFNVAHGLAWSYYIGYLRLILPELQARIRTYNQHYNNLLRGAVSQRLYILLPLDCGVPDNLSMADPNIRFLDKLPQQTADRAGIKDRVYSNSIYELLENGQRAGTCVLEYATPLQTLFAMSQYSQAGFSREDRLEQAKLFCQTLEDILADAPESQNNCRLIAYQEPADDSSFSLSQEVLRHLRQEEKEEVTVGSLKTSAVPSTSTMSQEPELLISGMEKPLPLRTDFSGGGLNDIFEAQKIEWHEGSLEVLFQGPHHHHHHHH
T2 sequence (Q86WV6 with tags, fused parts or gaps H232R): as the sequence (Q86WV6 with tags, fused parts or gaps R71H/G230A/H232R/R293Q) above, with H71R, A230G, Q293R counted along it

As usually defined, the EC50 is the concentration that produces a half-maximal response. Regarding `COc1cc2sc(C(=O)C[C@H](C)C(=O)O)cc2cc1OCCOc1cc2cc(C(=O)C[C@H](C)C(=O)O)sc2cc1OC` [Example 76, (2S,2′S)-4,4′-((ethane-1,2-diylbis(oxy))bis(6-methoxybenzo[b]thiophene-5,2-diyl))bis(2-methyl-4-oxobutanoic acid)], the concentration giving a half-maximal response (EC50) in assay [1] came out at 22 nM; in assay [2], 56 nM. In addition, the activation at 30 µM in assay [3] was 44%.

Consider `C[C@@H](CC(=O)c1cc2cc(OCCCOc3cc4cc(C(=O)C[C@H](C)C(=O)O)sc4cc3OC(F)F)c(OC(F)F)cc2s1)C(=O)O` [Example 79, (2S,2′S)-4,4′-(1,3-propanediylbis{oxy[6-(difluoromethoxy)-1-benzothiene-5,2-diyl]})bis(2-methyl-4-oxobutanoic acid)], for which the EC50 in assay [1] came out at 5 nM; in assay [2], 12 nM. Besides, the activation at 30 µM in assay [3] turned out to be 49%.

As to `COc1cc2sc(C(=O)[C@H]3C[C@@H]3C(=O)O)cc2cc1OCCCOc1cc2cc(C(=O)[C@@H]3C[C@H]3C(=O)O)sc2cc1OC` [Example 80, rac-(1S,2S)-2-(5-(3-((2-((1R, 2R)-2-carboxy-cyclopropane-1-carbonyl)-6-methoxybenzo[b]thiophen-5-yl)oxy)propoxy)-6-methoxybenzo[b]thiophene-2-carbonyl)cyclopropane-1-carboxylic acid], the EC50 in assay [1] was 1300 nM; in assay [2] it was 12700 nM. For the same compound, in assay [3], the activation at 30 µM turned out to be 12%.

On to `COc1cc2sc(C(=O)CCC(=O)O)cc2nc1OCCOc1c(OC)cc2sc(C(=O)CCC(=O)O)cc2c1F` [Example 81, 4-(5-(2-((2-(3-carboxypropanoyl)-4-fluoro-6-methoxybenzo[b]thiophen-5-yl)oxy)ethoxy)-6-methoxythieno[3,2-b]pyridin-2-yl)-4-oxobutanoic acid], for which the results for the EC50 in assay [1] and in assay [2] were 2 nM and 23 nM, respectively. For the same compound, the activation at 30 µM in assay [3] was determined as 120%.

With `COc1cc2sc(C(=O)CCC(=O)O)cc2nc1OCCCOc1c(OC)cc2sc(C(=O)CCC(=O)O)cc2c1F` [Example 82, 4-(5-(3-((2-(3-carboxypropanoyl)-4-fluoro-6-methoxybenzo[b]thiophen-5-yl)oxy)propoxy)-6-methoxythieno[3,2-b]pyridin-2-yl)-4-oxobutanoic acid], the values for the EC50 in assay [1] and in assay [2] were 1 nM and 2 nM, respectively. Moreover, the activation at 30 µM in assay [3] was found to be 158%.

For `COc1cc2sc(C(=O)CCC(=O)O)cc2nc1OCCOc1c(OC)cc2sc(C(=O)C[C@H](C)C(=O)O)cc2c1F` [Example 83, (S)-4-(5-(2-((2-(3-carboxypropanoyl)-6-methoxythieno[3,2-b]pyridin-5-yl)oxy)ethoxy)-4-fluoro-6-methoxybenzo[b]thiophen-2-yl)-2-methyl-4-oxobutanoic acid], the results for the EC50 in assay [1] and in assay [2] were 2 nM and 9 nM, respectively. For the same compound, the activation at 30 µM in assay [3] turned out to be 107%.

On to `COc1cc2sc(C(=O)C[C@H](C)C(=O)O)cc2cc1CCCOc1c(OC)cc2sc(C(=O)[C@@H]3C[C@H]3C(=O)O)cc2c1F` [Example 84, trans-2-(5-(3-(2-((S)-3-carboxybutanoyl)-6-methoxybenzo[b]thiophen-5-yl)propoxy)-4-fluoro-6-methoxybenzo[b]thiophene-2-carbonyl)-cyclopropanecarboxylic acid], for which the concentration for a half-maximal effect (EC50) in assay [1] worked out at 50 nM; in assay [2] it was 1060 nM. For the same compound, in assay [3], the activation at 30 µM was found to be 148%.

With `COc1cc2sc(C(=O)C[C@H](C)C(=O)O)cc2c(F)c1OCCCOc1c(OC)cc2sc(C(=O)[C@@H]3C[C@H]3C(=O)O)cc2c1F` [Example 86, trans-2-(5-(3-((2-((S)-3-carboxybutanoyl)-4-fluoro-6-methoxybenzo[b]thiophen-5-yl)oxy)propoxy)-4-fluoro-6-methoxybenzo[b]thiophene-2-carbonyl)cyclopropane carboxylic acid], the values for the EC50 in assay [1] and in assay [2] were 1 nM and 9 nM, respectively. Besides, the activation at 30 µM in assay [3] is 131%.

Consider `COc1cc2sc(C(=O)[C@H]3C[C@@H]3C(=O)O)cc2c(F)c1OCCCOc1c(OC)cc2sc(C(=O)[C@@H]3C[C@H]3C(=O)O)cc2c1F` [Example 87, trans-2-(5-(3-((2-((1R,2R)-2-carboxycyclopropanecarbony)-4-fluoro-6-methoxybenzo[b]thiophen-5-yl)oxy)propoxy)-4-fluoro-6-methoxybenzo[b]thiophene-2-carbonyl)cyclopropane carboxylic acid], for which the values for the EC50 in assay [1] and in assay [2] were 167 nM and 1920 nM, respectively. For the same compound, in assay [3], the activation at 30 µM amounted to 120%.

In the case of `COc1cc2sc(C(=O)C[C@H](C)C(=O)O)cc2cc1OCCCOc1c(OC)cc2sc(C(=O)[C@@H]3C[C@H]3C(=O)O)cc2c1F` [Example 89, trans-2-(5-(3-((2-((S)-3-carboxybutanoyl)-6-methoxybenzo[b]thiophen-5-yl)oxy)propoxy)-4-fluoro-6-methoxybenzo[b]thiophene-2-carbonyl)cyclopropane carboxylic acid], the values for the 50% effective concentration (EC50) in assay [1] and in assay [2] were 2 nM and 94 nM, respectively. The activation at 30 µM in assay [3] is 112%.

As for `COc1cc2cc(C(=O)C[C@H](C)C(=O)O)sc2cc1OCCCOc1c(OC)cc2sc(C(=O)[C@@H]3C[C@H]3C(=O)O)cc2c1F` [Example 90, trans-2-(5-(3-((2-((S)-3-carboxybutanoyl)-5-methoxybenzo[b]thiophen-6-yl)oxy)propoxy)-4-fluoro-6-methoxybenzo[b]thiophene-2-carbonyl)cyclopropane carboxylic acid], the EC50 in assay [1] turned out to be 58 nM; in assay [2], 978 nM. In assay [3], the activation at 30 µM was 125%.

With `COc1cc2sc(C(=O)C[C@@H](C)C(=O)O)cc2cc1CCCOc1c(OC)cc2sc(C(=O)C[C@H](C)C(=O)O)cc2c1F` [Example 91, (R)-4-(5-(3-((2-((S)-3-carboxybutanoyl)-4-fluoro-6-methoxybenzo[b]thiophen-5-yl)oxy)propyl)-6-methoxybenzo[b]thiophen-2-yl)-2-methyl-4-oxobutanoic acid], the EC50 in assay [1] was determined as 7 nM; in assay [2] it was 30 nM. Further, the activation at 30 µM in assay [3] turned out to be 109%.

As for `COc1cc2sc(C(=O)C[C@H](C)C(=O)O)cc2cc1OCCCCOc1cc2cc(C(=O)C[C@H](C)C(=O)O)sc2cc1OC` [Example 92, (2S,2′S)-4,4′-(5,5′-(butane-1,4-diylbis(oxy))bis(6-methoxybenzo[b]thiophene-5,2-diyl))bis(2-methyl-4-oxobutanoic acid)], the concentration for a half-maximal effect (EC50) in assay [1] is 3 nM; in assay [2], 7 nM. For the same compound, the activation at 30 µM in assay [3] was 62%.

As to `COc1cc2sc(C(=O)C[C@H](C)C(=O)O)cc2cc1OCCCCOc1c(OC)cc2sc(C(=O)C[C@H](C)C(=O)O)cc2c1F` [Example 93, (S)-4-(5-(4-((2-((S)-3-carboxybutanoyl)-4-fluoro-6-methoxybenzo[b]thiophen-5-yl)oxy)butoxy)-6-methoxybenzo[b]thiophen-2-yl)-2-methyl-4-oxobutanoic acid], the EC50 was determined as 1 nM in assay [1] and 3 nM in assay [2]. The activation at 30 µM in assay [3] was determined as 87%.

Take `COc1cc2sc(C(=O)C[C@H](C)C(=O)O)cc2cc1OCCCCOc1cc2sc(C(=O)C[C@H](C)C(=O)O)cc2cc1OC` [Example 94, (S)-4-(5-(4-((2-((S)-3-carboxybutanoyl)-5-methoxybenzo[b]thiophen-6-yl)oxy)butoxy)-6-methoxybenzo[b]thiophen-2-yl)-2-methyl-4-oxobutanoic acid]: the EC50 in assay [1] was 6 nM; in assay [2], 131 nM. Further, the activation at 30 µM in assay [3] is 100%.

Take `COc1cc2cc(C(=O)C[C@H](C)C(=O)O)sc2cc1OCCCCOc1cc2sc(C(=O)C[C@H](C)C(=O)O)cc2cc1OC` [Example 95, (2S,2′S)-4,4′-(6,6′-(butane-1.4-diylbis(oxy))bis(5-methoxybenzo[b]thiophene-6,2-diyl))bis(2-methyl-4-oxobutanoic acid)]: the figures for the EC50 in assay [1] and in assay [2] were 237 nM and 813 nM, respectively. For the same compound, the activation at 30 µM in assay [3] was 72%.

As to `COc1cc2sc(C(=O)C[C@H](C)C(=O)O)cc2cc1CCCOc1c(OC)cc2sc(CC[C@H](C)C(=O)O)cc2c1F` [Example 100, (S)-4-(5-(3-((2-((S)-3-carboxybutyl)-4-fluoro-6-methoxybenzo[b]thiophen-5-yl)oxy)propyl)-6-methoxybenzo[b]thiophen-2-yl)-2-methyl-4-oxobutanoic acid], the results for the EC50 in assay [1] and in assay [2] were 277 nM and 2240 nM, respectively. Besides, the activation at 3 µM in assay [3] (compound at 3 uM, read-out: % Effect relative to 2′3′-cGAMP (@ 3 uM)) came to 33%.

The values above are taken from patent US10793557B2, “Sting agonist compounds” (Merck Sharp & Dohme Corp., priority 2018, dated 2020).
